Assay results: US20220395464A1, “ORALLY ADMINISTERED SOLID DOSAGE FORM DRUG” (ASCENTAWITS PHARMACEUTICALS, LTD., priority 2019, published 2022)
Several values for one entry are separate records, joined by “and”; a condition that tells them apart may be missing. Equal entries are not always repeated.

Assays:
[1] = Stability in hepatomicrosome with NADPH (LC-MS/MS); type: in vitro ADME, human; conditions: for % Remaining: human hepatomicrosome 0.5 mg/ml, NADPH 2 mM, 37° C., Sample 1, Sample 2
Description: The compounds, hepatomicrosome and reduced coenzyme NADPH were mixed together. Besides, a final concentration of the hepatomicrosome was 0.5 mg/ml, and human, male and mixed types of the hepatomicrosome were purchased. A final concentration of the NADPH was 2 mM. Next, the preceding mixtures were incubated in buffer (100 mM KH2PO4—K2HPO4) at 37° C. for 0, 5, 15, 30, 45, and 60 minutes, respectively. At the appointed incubation time, the reaction was terminated by the addition of an internal standard solution. Finally, the samples were centrifuged and the supernatant was taken for detection by LC-MS/MS.
Through mass spectrometry analysis, a concentration of the compounds in each sample was expressed by a peak-area ratio (a ratio of the peak-area of the compound to a peak-area of the internal standard). Then, each remaining percentage of the compounds (% Remaining) at each appointed incubation time was calculated with a reference that 0 minute at each concentration of the compounds. In logarithm of the remaining percentage was fitted linearly with the appointed incubation times, and a half-life and an intrinsic clearance were calculated according to the following formulas.
The remaining percentage (% Remaining)=(a peak area ratio at a certain appointed time (PARappointed time)/a peak area ratio at 0 minute (PAR0-mm)×100 (PAR: peak area ratio)
The elimination rate constant (k)=a negative of a slope (-gradient)
In vitro clearance (CLint, in vitro) (ml/min/mg)=k/c (c: a concentration of hepatomicrosome in the incubation system)

[2] = Pharmacokinetics after single intravenous drip infusion, plasma LC-MS/MS; type: in vivo, Philippine macaques; conditions: individual animals 101, 102, 103; for Plasma-drug concentration: AST-3424-D6 intravenous drip infusion 0.42 mg/kg
Description: AST-3424 and AST-3424-D6 (i.e. the compound of formula I) were administered to Philippine macaques by intravenous drip infusion, and blood samples were collected at different appointed times. LC-MS/MS was used to determine concentrations of the test substances in plasma of the Philippine macaques after administration, and relevant pharmacokinetic parameters were calculated.
Preparation method: 0.447 ml of AST-3424 (0.2 mg/ml) and 0.481 ml of AST-3424-D6 (0.2 mg/ml) were added into 104.272 ml of the dissolvent, respectively, and mixed for 5 minutes to obtain colorless and clarified solutions with pH 7.0.
The four male Philippine macaques were purchased from Guangxi Xiongsen Primate Development Experiment Co., Ltd. All Philippine macaques were healthy with qualified medical examination and no abnormality. Three of animals were used for the experiment, and one of them was used to prepare blank plasma.
About 0.8 ml of blood samples were collected through femoral vein and anticoagulated with heparin sodium. Appointed times of blood collection were before administration, 0.17, 0.25, 0.5, 0.75, 1, 2, and 4 hours after administration.
The blood samples were placed on ice after collection. Next, plasma samples were separated by centrifugation, and centrifugation conditions were 3500 rpm for 10 minutes at 4° C. Then, the collected plasma samples were stored at −80° C. until analysis. The plasma samples were analyzed by LC-MS/MS by an analysis department of an experimental institution. Besides, Lower limit of quantifications (LLOQ) of AST-3424 and AST-3424-D6 detection were 1 ng/ml. The accuracy of analysis results of an accompanying standard curve and a quality control samples all met the relevant requirements of biological analysis (the accuracy of the quality control samples exceeding 66.7% was between 85˜115%) in a process of the sample detection.
According to average blood concentration data of each group at each appointed time, the pharmacokinetic parameters of the compounds were respectively computed by a pharmacokinetic computing software, a non-compartmental model. In addition, the pharmacokinetic parameters were AUC0-t, AUC0-∞, MRT0-∞, Cmax, Tmax, t1/2, etc. In the case of the concentrations of the samples whose concentration being lower than a lower limit of quantification, the following schemes were used to compute the pharmacokinetic parameters. The samples sampled before reaching Cmax shall be computed as zero value, while the samples sampled after reaching Cmax shall be computed as non-quantifiable (marked as “BLQ”).
After a single intravenous infusion of the compounds AST-3424 and AST-3424-D6 was administered to the Philippine macaques, the whole blood samples of the corresponding animals were collected at the appointed times. Next, the whole blood samples were processed and biologically analyzed to obtain concentrations of the compounds in the plasma at the different appointed times. Results of the assay were listed in Table 14 below, and corresponding means of the plasma-drug concentration-time curves are shown in FIG. 3.
According to the plasma-drug concentration data of each drug group, the pharmacokinetic parameters of each compound group were computed using the non-compartmental model of the pharmacokinetic computing software. The pharmacokinetic

[3] = AST-3424-D6 single intravenous infusion, Table 15 heading 0.58 mg/kg (text: 0.42 mg/kg), plasma

## [2H]C([2H])([2H])N(C(=O)c1cccc(Oc2cc([C@H](C)OP(=O)(N3CC3)N3CC3)ccc2[N+](=O)[O-])c1)C([2H])([2H])[2H] [AST-3424-D6]
[1]; human hepatomicrosome
  Stability parameter k (elimination rate constant): 0.0349 min⁻¹
[1]; 0 minutes
  % Remaining: 101.60% and 98.40%
[1]; 5 minutes
  % Remaining: 85.07% and 87.20%
[1]; 15 minutes
  % Remaining: 62.93% and 60.00%
[1]; 30 minutes
  % Remaining: 36.80% and 34.93%
[1]; 45 minutes
  % Remaining: 21.17% and 21.07%
[1]; 60 minutes
  % Remaining: 13.52% and 12.75%
[1]; human hepatomicrosome, 0 minutes
  % Remaining, Average: 100.00%
[1]; human hepatomicrosome, 5 minutes
  % Remaining, Average: 86.13%
[1]; human hepatomicrosome, 15 minutes
  % Remaining, Average: 63.47%
[1]; human hepatomicrosome, 30 minutes
  % Remaining, Average: 35.87%
[1]; human hepatomicrosome, 45 minutes
  % Remaining, Average: 21.12%
[1]; human hepatomicrosome, 60 minutes
  % Remaining, Average: 13.13%
[1]; human hepatomicrosome, FIG. 2 and Table 13
  Hepatomicrosome stability compared with AST-3424, in words: more stable
[1]; human hepatomicrosome, at the same time period
  Remaining percentage higher than that of AST-3424: at least 10%
[1]; male, liver microsomes (hepatomicrosome), human hepatomicrosome, read-out: Stability parameter (t1/2)
  half-life: 19.9 min
[2]; 0.17 hr
  Plasma-drug concentration: 573.76 ng/mL and 478.95 ng/mL
[2]; 0.25 hr
  Plasma-drug concentration: 528.54 ng/mL and 508.71 ng/mL
[2]; 0.5 hr
  Plasma-drug concentration: 533.71 ng/mL and 487.88 ng/mL
[2]; 0.75 hr
  Plasma-drug concentration: 122.04 ng/mL and 91.24 ng/mL
[2]; 1 hr
  Plasma-drug concentration: 36.24 ng/mL and 24.30 ng/mL
[2]; 2 hr, LLOQ 1 ng/ml
  Plasma-drug concentration: BLQ
[2]; 4 hr, LLOQ 1 ng/ml
  Plasma-drug concentration: BLQ
[2]; [3]
  AUC(0−t): 327.39 ng·h/mL and 291.62 ng·h/mL
  AUC(0−∞): 295.67 ng·h/mL
  Cl: 23.6747 mL/min/kg
  Cmax: 573.76 ng/mL and 508.71 ng/mL
  T1/2: 7.2 min
  Tmax: 30 min and 10.2 min and 15 min
  Vss: 0.20706 L/kg
